Measurements: the supplement of paper PMC10307832

Assays:
Test in all cases: relative viability (nuclei count vs DMSO), 5 days (fraction); higher = more cells survive
[1] = compound: C1=CC=C(C(=C1)C2=CC=C(C=C2)C3=CSC4=C3C(=C(C(=O)N4)C#N)O)O + COc1cccc2cc(-c3nc([C@H]4CC[C@H](C(=O)O)CC4)n4ncnc(N)c34)[nH]c12 [OSI-027] (partner 0.5 µM)
Summary of the method: (§1)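 Each reported value is a median over duplicate plates. It expresses relative viability: treated-well nuclei count divided by vehicle-well nuclei count. Lung cancer cell lines in 1536-well plates were dosed by pin tool a day after seeding, alone with one drug or with a fixed anchor-drug dose plus five library-drug doses (not always all listed) in √10 steps, and nuclei were counted after 5 days.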

[2] = compound: C1=CC=C(C(=C1)C2=CC=C(C=C2)C3=CSC4=C3C(=C(C(=O)N4)C#N)O)O + Cc1nc(Nc2ncc(C(=O)Nc3c(C)cccc3Cl)s2)cc(N2CCN(CCO)CC2)n1 [Dasatinib] (partner 0.075 µM)
Summary of the method: as §1

[3] = compound: CC1=CN2C(=O)C=C(N=C2C(=C1)C(C)NC3=CC=CC=C3)N4CCOCC4 [TGX 221] + CC(=O)Nc1cccc(-n2c(=O)n(C3CC3)c(=O)c3c(Nc4ccc(I)cc4F)n(C)c(=O)c(C)c32)c1 [Trametinib] (partner 0.02 µM)
Summary of the method: as §1

[4] = compound: CC1=CN2C(=O)C=C(N=C2C(=C1)C(C)NC3=CC=CC=C3)N4CCOCC4 [TGX 221] + N=C(N)NC(=N)NCCc1ccccc1 [Phenformin] (partner 250 µM)
Summary of the method: as §1

| Cell Line | relative viability ([1]; first compound 0.08 µM) | relative viability ([1]; first compound 0.253 µM) | relative viability ([1]; first compound 0.8 µM) | relative viability ([1]; first compound 2.53 µM) | relative viability ([1]; first compound 8 µM) | relative viability ([2]; first compound 0.08 µM) | relative viability ([2]; first compound 0.253 µM) | relative viability ([2]; first compound 0.8 µM) | relative viability ([2]; first compound 2.53 µM) | relative viability ([2]; first compound 8 µM) | relative viability ([3]; first compound 0.08 µM) | relative viability ([3]; first compound 0.253 µM) | relative viability ([3]; first compound 0.8 µM) | relative viability ([3]; first compound 2.53 µM) | relative viability ([3]; first compound 8 µM) | relative viability ([4]; first compound 0.08 µM) | relative viability ([4]; first compound 0.253 µM) | relative viability ([4]; first compound 0.8 µM) | relative viability ([4]; first compound 2.53 µM) | relative viability ([4]; first compound 8 µM) |
| --- | --- | --- | --- | --- | --- | --- | --- | --- | --- | --- | --- | --- | --- | --- | --- | --- | --- | --- | --- | --- |
| NCI-H2170 | 0.76 | 0.74 | 0.676 | 0.677 | 0.754 | 0.486 | 0.514 | 0.662 | 0.635 | 0.691 | 0.883 | 0.877 | 0.949 | 0.977 | 0.892 | 0.421 | 0.413 | 0.464 | 0.431 | 0.362 |
| NCI-H2228 | 0.6 | 0.785 | 0.576 | 0.491 | 0.372 | 0.511 | 0.476 | 0.567 | 0.606 | 0.475 | 0.518 | 0.526 | 0.801 | 0.379 | 0.489 | 0.377 | 0.317 | 0.256 | 0.312 | 0.258 |
| NCI-H2342 | 0.555 | 0.702 | 0.561 | 0.664 | 0.555 | 0.315 | 0.345 | 0.309 | 0.354 | 0.284 | 0.814 | 0.763 | 0.8 | 0.632 | 0.93 | 0.445 | 0.57 | 0.583 | 0.559 | 0.601 |
| NCI-H2347 | 0.454 | 0.572 | 0.348 | 0.419 | 0.378 | 0.331 | 0.276 | 0.28 | 0.284 | 0.314 | 0.23 | 0.258 | 0.265 | 0.304 | 0.213 | 0.427 | 0.385 | 0.389 | 0.234 | 0.213 |
| NCI-H2405 | 0.648 | 0.656 | 0.607 | 0.679 | 0.65 | 0.206 | 0.206 | 0.214 | 0.201 | 0.201 | 0.529 | 0.571 | 0.461 | 0.465 | 0.436 | 0.386 | 0.405 | 0.379 | 0.44 | 0.338 |
| NCI-H3122 | 0.836 | 1.07 | 1.09 | 1.33 | 0.774 | 1 | 0.715 | 0.91 | 0.829 | 0.721 | 0.244 | 0.188 | 0.224 | 0.211 | 0.257 | 0.366 | 0.386 | 0.396 | 0.363 | 0.366 |
| PC-3 [JPC-3] | 0.637 | 0.777 | 0.704 | 0.93 | 0.719 | 0.818 | 0.731 | 0.913 | 1.11 | 0.953 | 0.662 | 0.701 | 0.668 | 0.595 | 0.571 | 0.463 | 0.459 | 0.469 | 0.47 | 0.477 |
